Test results reported in patent US9382228B2 (priority 2013, dated 2016).

What was measured:
[1] = target: T1, unphosphorylated c-FMS kinase (uFMS, Seq. ID no. 1) (Homo sapiens, UniProt P07333); test: biochemical
T1 sequence (P07333 538-972): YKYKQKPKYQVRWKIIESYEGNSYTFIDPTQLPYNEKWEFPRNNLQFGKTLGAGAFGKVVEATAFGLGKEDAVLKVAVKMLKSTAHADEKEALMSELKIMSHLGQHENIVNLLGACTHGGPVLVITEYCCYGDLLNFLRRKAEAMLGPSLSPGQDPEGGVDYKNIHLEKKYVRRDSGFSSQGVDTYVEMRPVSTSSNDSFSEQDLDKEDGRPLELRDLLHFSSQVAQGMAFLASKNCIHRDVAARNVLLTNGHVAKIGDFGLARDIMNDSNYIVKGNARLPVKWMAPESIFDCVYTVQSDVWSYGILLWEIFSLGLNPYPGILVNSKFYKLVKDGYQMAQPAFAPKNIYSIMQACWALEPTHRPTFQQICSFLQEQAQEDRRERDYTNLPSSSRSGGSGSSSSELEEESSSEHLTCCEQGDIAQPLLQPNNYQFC
Description: In this assay, the oxidation of NADH (thus the decrease at A340 nm) was continuously monitored spectrophometrically. The reaction mixture (100 μL) contained FMS (purchased from Millipore) (10 nM), polyE4Y (1 mg/mL), MgCl2 (10 mM), pyruvate kinase (4 units), lactate dehydrogenase (0.7 units), phosphoenol pyruvate (1 mM), NADH (0.28 mM) and ATP (500 μM) in 90 mM Tris buffer containing 0.2% octyl-glucoside and 1% DMSO, pH 7.5. The inhibition reaction was started by mixing serial diluted test compound with the above reaction mixture. The absorption at 340 nm was monitored continuously for 4 hours at 30° C. on Synergy 2 plate reader. The reaction rate was calculated using the 3 to 4 h time frame. Percent inhibition was obtained by comparison of reaction rate with that of a control (i.e. in the absence of test compound). IC50 values were calculated from a series of percent inhibition values determined at a range of inhibitor concentrations using software routines as implemented in the GraphPad Prism software package.

osteoclast precursors = test: cells; format: cell-based; conditions: read-out: Osteoclast assay
M-NFS-60 cells = test: cells; conditions: 67 h, read-out: M-NFS-60 cell proliferation
Description: M-NFS-6 Cell Proliferation Assay
A serial dilution of test compound was dispensed into a 384-well black clear bottom plate (Corning, Corning, N.Y.). Two thousand five hundred cells were added per well in 50 μL complete growth medium. […] IC50 values were calculated from a series of percent inhibition values determined at a range of inhibitor concentrations using software routines as implemented in the GraphPad Prism software package.

[2] = target: unphosphorylated c-KIT kinase (uKIT, Seq. ID no. 2) (Homo sapiens, UniProt P10721); test: biochemical
Sequence of unphosphorylated c-KIT kinase (uKIT, Seq. ID no. 2) (P10721 with tags, fused parts or gaps): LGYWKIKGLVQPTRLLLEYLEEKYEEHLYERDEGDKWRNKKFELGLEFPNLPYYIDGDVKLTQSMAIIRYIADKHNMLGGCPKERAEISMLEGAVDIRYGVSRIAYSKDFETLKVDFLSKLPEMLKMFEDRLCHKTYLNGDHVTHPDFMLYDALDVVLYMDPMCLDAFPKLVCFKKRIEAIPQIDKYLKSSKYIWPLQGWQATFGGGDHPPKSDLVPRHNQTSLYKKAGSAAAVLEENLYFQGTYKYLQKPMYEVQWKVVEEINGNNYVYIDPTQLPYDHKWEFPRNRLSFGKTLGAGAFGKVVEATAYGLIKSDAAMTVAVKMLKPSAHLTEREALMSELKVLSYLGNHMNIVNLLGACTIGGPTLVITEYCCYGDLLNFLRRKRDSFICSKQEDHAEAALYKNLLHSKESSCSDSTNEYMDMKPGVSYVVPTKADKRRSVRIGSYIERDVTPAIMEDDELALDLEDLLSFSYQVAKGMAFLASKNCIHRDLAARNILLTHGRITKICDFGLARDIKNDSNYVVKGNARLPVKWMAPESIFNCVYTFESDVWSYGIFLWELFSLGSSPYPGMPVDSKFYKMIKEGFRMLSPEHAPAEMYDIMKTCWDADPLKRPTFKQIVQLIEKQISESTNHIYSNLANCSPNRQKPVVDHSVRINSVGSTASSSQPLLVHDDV
Description: uKit kinase (Seq. ID No. 2) Assay
In this assay, the oxidation of NADH (thus the decrease at A340 nm) was continuously monitored spectrophometrically. […] The inhibition reaction was started by mixing serial diluted test compound with the above reaction mixture. The absorption at 340 nm was monitored continuously for 4 hours at 30° C. on Synergy 2 plate reader (BioTech).

[3] = target: unphosphorylated PDGFRβ kinase (uPDGFRβ, Seq. ID No. 3) (Homo sapiens, UniProt P09619); test: biochemical
Sequence of unphosphorylated PDGFRβ kinase (uPDGFRβ, Seq. ID No. 3) (P09619 557-1106): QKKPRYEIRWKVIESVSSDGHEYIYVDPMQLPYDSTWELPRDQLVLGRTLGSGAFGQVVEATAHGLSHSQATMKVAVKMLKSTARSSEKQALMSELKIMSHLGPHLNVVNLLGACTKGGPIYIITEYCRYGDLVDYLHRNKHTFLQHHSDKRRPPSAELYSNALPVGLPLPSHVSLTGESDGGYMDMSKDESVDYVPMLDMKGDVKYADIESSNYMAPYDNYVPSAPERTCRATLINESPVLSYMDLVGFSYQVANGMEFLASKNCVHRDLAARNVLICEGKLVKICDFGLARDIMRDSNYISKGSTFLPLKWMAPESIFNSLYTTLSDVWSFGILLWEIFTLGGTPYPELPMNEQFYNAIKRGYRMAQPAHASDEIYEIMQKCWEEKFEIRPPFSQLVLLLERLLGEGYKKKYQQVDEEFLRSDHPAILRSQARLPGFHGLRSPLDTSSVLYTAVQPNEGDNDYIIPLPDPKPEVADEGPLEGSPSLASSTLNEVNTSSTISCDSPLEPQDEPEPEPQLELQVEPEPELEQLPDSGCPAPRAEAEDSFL
Description: Unphosphorylated PDGFRβ (uPDGFRβ) Kinase (Seq. ID No. 3) Assay
In this assay, the oxidation of NADH (thus the decrease at A340 nm) was continuously monitored spectrophometrically. […] The inhibition reaction was started by mixing serial diluted test compound with the above reaction mixture. The absorption at 340 nm was monitored continuously for 4 h at 30° C. on a Polarstar Optima or Synergy 2 plate reader. The reaction rate was calculated using the 1.5 to 2.5 h time frame. Percent inhibition was obtained by comparison of reaction rate with that of a control (i.e. with no test compound). IC50 values were calculated from a series of percent inhibition values determined at a range of inhibitor concentrations using software routines as implemented in the GraphPad Prism software package.

[4] = system: phospho-FMS in THP-1 cells; test: cells; conditions: Homo sapiens, THP-1, read-out: pFMS inhibition in THP-1 cells
Description: In a separate 96 well black clear bottom plate, one hundred and fifty thousand THP-1 cells were added per well in 100 μL in assay medium. Fifty microliters of diluted compound was then added to the cells. […] Lysates were prepared and used to perform the phospho-FMS ELISA as described by the manufacturer (catalog #DYC3268, R & D Systems, Minneapolis, Minn.). GraphPad Prism was used to calculate IC50 values obtained from data generated from the ELISA assay.

[5] = uFMS, enzymatic assay, ATP 500 μM
[6] = uKIT, enzymatic assay, ATP 2000 μM
[7] = uPDGFRb, enzymatic assay, ATP 500 μM

Row | IC50 [1, 5] [nM] | IC50 (osteoclast precursors) [µM] | IC50 [2, 6] [nM] | IC50 [3, 7] [nM] | IC50 [4] [µM] | IC50 ([1]; IC50 (nM) uFMS, Table 3) [nM] | IC50 ([2]; IC50 (nM) uKIT, Table 3) [nM] | IC50 ([3]; IC50 (nM) uPDGFRβ, Table 3) [nM] | SMILES | IC50 (M-NFS-60 cells) [µM]
1 | < 10 | < 0.01 | 100 to 1000 | 100 to 1000 | < 0.01 |  |  |  | Cc1nc(NC(=O)NC(=O)C2(C)CCC2)ccc1Oc1ccnc(-c2cnn(C)c2)c1 [Example 92, 1-methyl-N-((6-methyl-5-((2-(1-methyl-1H-pyrazol-4-yl)pyridin-4-yl)oxy)pyridin-2-yl)carbamoyl)cyclobutanecarboxamide] | < 0.01
2 | < 10 | < 0.01 | > 1000 | > 1000 | < 0.01 |  |  |  | CCn1cc(-c2cc(Oc3ccc(NC(=O)NC(=O)C(C)C)nc3C)ccn2)cn1 [Example 61, N-((5-((2-(1-ethyl-1H-pyrazol-4-yl)pyridin-4-yl)oxy)-6-methylpyridin-2-yl)carbamoyl)isobutyramide] | 0.01 to 0.1
3 | 10 to 100 | < 0.01 | > 1000 | > 1000 | 0.01 to 0.1 |  |  |  | Cc1cn(-c2cc(Oc3ccc(NC(=O)NC(=O)C4(C)CC4)nc3C)ccn2)cn1 [Example 135, 1-methyl-N-((6-methyl-5-((2-(4-methyl-1H-imidazol-1-yl)pyridin-4-yl)oxy)pyridin-2-yl)carbamoyl)cyclopropanecarboxamide] | 0.01 to 0.1
4 | 10 to 100 | < 0.01 | > 1000 | > 1000 | < 0.01 |  |  |  | CC(C)(C)C(=O)NC(=O)Nc1ccc(Oc2ccnc(-c3cnco3)c2)cn1 [Example 93, N-((5-((2-(oxazol-5-yl)pyridin-4-yl)oxy)pyridin-2-yl)carbamoyl)pivalamide] | 0.01 to 0.1
5 | < 10 | 0.01 to 0.1 | 100 to 1000 | 100 to 1000 | 0.01 to 0.1 |  |  |  | Cc1nc(NC(=O)NC(=O)C(C)(C)C(F)(F)F)ccc1Oc1ccnc(-c2cnn(C)c2)c1 [Example 36, 3,3,3-trifluoro-2,2-dimethyl-N-((6-methyl-5-((2-(1-methyl-1H-pyrazol-4-yl)pyridin-4-yl)oxy)pyridin-2-yl)carbamoyl)propanamide] | 0.01 to 0.1
6 | < 10 | 0.01 to 0.1 | 100 to 1000 | 100 to 1000 | 0.01 to 0.1 |  |  |  | CCC(C)(C)C(=O)NC(=O)Nc1ccc(Oc2ccnc(-c3cnn(C)c3)c2)c(C)n1 [Example 69, 2,2-dimethyl-N-((6-methyl-5-((2-(1-methyl-1H-pyrazol-4-yl)pyridin-4-yl)oxy)pyridin-2-yl)carbamoyl)butanamide] | < 0.01
7 | < 10 | < 0.01 | > 1000 | 100 to 1000 | < 0.01 |  |  |  | Cc1ccc(-c2cc(Oc3ccc(NC(=O)NC(=O)C(C)(C)C)nc3)ccn2)cn1 [Example 73, N-((5-((6′-methyl-[2,3′-bipyridin]-4-yl)oxy)pyridin-2-yl)carbamoyl)pivalamide] | 0.01 to 0.1
8 | < 10 | < 0.01 | > 1000 | 100 to 1000 | < 0.01 |  |  |  | COC(C)(C)C(=O)NC(=O)Nc1ccc(Oc2ccnc(-c3cn(C)cn3)c2)cn1 [Example 132, 2-methoxy-2-methyl-N-((5-((2-(1-methyl-1H-imidazol-4-yl)pyridin-4-yl)oxy)pyridin-2-yl)carbamoyl)propanamide] | 0.01 to 0.1
9 | < 10 | < 0.01 | 10 to 100 | 100 to 1000 | < 0.01 |  |  |  | COC(C)(C)C(=O)NC(=O)Nc1cc(C)c(Oc2ccnc(-c3cnn(C)c3)c2)cn1 [Example 91, 2-methoxy-2-methyl-N-((4-methyl-5-((2-(1-methyl-1H-pyrazol-4-yl)pyridin-4-yl)oxy)pyridin-2-yl)carbamoyl)propanamide] | < 0.01
10 | < 10 | 0.01 to 0.1 | > 1000 | > 1000 | < 0.01 |  |  |  | CCn1cc(-c2cc(Oc3ccc(NC(=O)NC(=O)C(C)(C)C)nc3C)ccn2)cn1 [Example 60, N-((5-((2-(1-ethyl-1H-pyrazol-4-yl)pyridin-4-yl)oxy)-6-methylpyridin-2-yl)carbamoyl)pivalamide] | 0.01 to 0.1
11 | < 10 | 0.01 to 0.1 | > 1000 | > 1000 | 0.01 to 0.1 |  |  |  | Cc1nc(NC(=O)NC(=O)C(C)(C)C)ccc1Oc1ccnc(-c2c[nH]nn2)c1 [Example 171, N-((5-((2-(1H-1,2,3-triazol-4-yl)pyridin-4-yl)oxy)-6-methylpyridin-2-yl)carbamoyl)pivalamide] | 0.01 to 0.1

Second part, the compound before the results:

Row | SMILES | IC50 [1, 5] [nM] | IC50 (osteoclast precursors) [µM] | IC50 [2, 6] [nM] | IC50 [3, 7] [nM] | IC50 [4] [µM] | IC50 ([1]; IC50 (nM) uFMS, Table 3) [nM] | IC50 ([2]; IC50 (nM) uKIT, Table 3) [nM] | IC50 ([3]; IC50 (nM) uPDGFRβ, Table 3) [nM] | IC50 (M-NFS-60 cells) [µM]
12 | CCn1cc(-c2cc(Oc3ccc(NC(=O)NC(=O)C(C)(C)OC)nc3)ccn2)cn1 [Example 170, N-((5-((2-(1-ethyl-1H-pyrazol-4-yl)pyridin-4-yl)oxy)pyridin-2-yl)carbamoyl)-2-methoxy-2-methylpropanamide] | < 10 | < 0.01 | 100 to 1000 | > 1000 | 0.01 to 0.1 |  |  |  | < 0.01
13 | CCc1nc(NC(=O)NC(=O)C2CCOCC2)ccc1Oc1ccnc(-c2cnn(C)c2)c1 [Example 83, N-((6-ethyl-5-((2-(1-methyl-1H-pyrazol-4-yl)pyridin-4-yl)oxy)pyridin-2-yl)carbamoyl)tetrahydro-2H-pyran-4-carboxamide] | < 10 | 0.01 to 0.1 | > 1000 | > 1000 | 0.1 to 1 |  |  |  | 0.01 to 0.1
14 | CC(C)C(=O)NC(=O)Nc1ccc(Oc2ccnc(-c3ccc(C4CCN(C)CC4)cc3)c2)cn1 [Example 75, N-((5-((2-(4-(1-methylpiperidin-4-yl)phenyl)pyridin-4-yl)oxy)pyridin-2-yl)carbamoyl)isobutyramide] | < 10 | < 0.01 | 100 to 1000 | 100 to 1000 | < 0.01 |  |  |  | < 0.01
15 | COC1(C(=O)NC(=O)Nc2ccc(Oc3ccnc(-c4ccc(C)nc4)c3)cn2)CC1 [Example 126, 1-methoxy-N-((5-((6′-methyl-[2,3′-bipyridin]-4-yl)oxy)pyridin-2-yl)carbamoyl)cyclopropanecarboxamide] | < 10 | < 0.01 | 100 to 1000 | 10 to 100 | 0.01 to 0.1 |  |  |  | 0.01 to 0.1
16 | Cn1cc(-c2cc(Oc3ccc(NC(=O)NC(=O)CC4CCOCC4)nc3)ccn2)cn1 [Example 4, N-((5-((2-(1-methyl-1H-pyrazol-4-yl)pyridin-4-yl)oxy)pyridin-2-yl)carbamoyl)-2-(tetrahydro-2H-pyran-4-yl)acetamide] | < 10 | < 0.01 | 100 to 1000 | 100 to 1000 | 0.01 to 0.1 | 8 | 165 | 168 | < 0.01
17 | CCOC(C)(C)C(=O)NC(=O)Nc1ccc(Oc2ccnc(-c3cnn(C)c3)c2)cn1 [Example 123, 2-ethoxy-2-methyl-N-((5-((2-(1-methyl-1H-pyrazol-4-yl)pyridin-4-yl)oxy)pyridin-2-yl)carbamoyl)propanamide] | < 10 | < 0.01 | 100 to 1000 | 100 to 1000 | 0.01 to 0.1 |  |  |  | 0.01 to 0.1
18 | Cn1cc(-c2cc(Oc3cnc(NC(=O)NC(=O)C(C)(C)C)nc3)ccn2)cn1 [Example 174, N-((5-((2-(1-methyl-1H-pyrazol-4-yl)pyridin-4-yl)oxy)pyrimidin-2-yl)carbamoyl)pivalamide] | 10 to 100 | 0.01 to 0.1 | 100 to 1000 | > 1000 | 0.01 to 0.1 |  |  |  | 0.01 to 0.1
